The values that follow come from US20260297542A1, “HERBICIDE RESISTANT PLANTS” (SYNGENTA CROP PROTECTION AG, priority 2023, published 2026).

Each structure is given as a SMILES string. Changes are numbered by the printed parent chain.

In assay [1] the target is T1, AtPPO1 Y426M T461Q L479M (SEQ ID NO.132) (Arabidopsis thaliana, UniProt P55826, L479M/T461Q/Y426M).
T1 construct: made in house; host or cells: E. coli BL21 (DE3) hemG, crude extract
T1 sequence (P55826 35-537 Y426M/T461Q/L479M): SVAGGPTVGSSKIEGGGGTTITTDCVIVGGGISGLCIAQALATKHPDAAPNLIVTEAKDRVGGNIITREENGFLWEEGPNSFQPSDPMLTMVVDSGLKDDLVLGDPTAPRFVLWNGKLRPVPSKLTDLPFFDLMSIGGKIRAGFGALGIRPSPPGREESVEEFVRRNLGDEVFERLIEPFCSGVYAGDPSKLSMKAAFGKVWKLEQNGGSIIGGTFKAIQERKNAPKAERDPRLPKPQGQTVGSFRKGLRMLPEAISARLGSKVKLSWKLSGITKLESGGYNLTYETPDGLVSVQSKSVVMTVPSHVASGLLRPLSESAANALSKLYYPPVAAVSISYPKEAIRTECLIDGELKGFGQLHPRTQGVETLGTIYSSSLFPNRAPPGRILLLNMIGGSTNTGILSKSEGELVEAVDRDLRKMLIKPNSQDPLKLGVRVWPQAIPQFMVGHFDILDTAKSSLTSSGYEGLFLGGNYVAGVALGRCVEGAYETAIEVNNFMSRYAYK
Briefly: fluorescent Protoporphyrinogen Oxidase assay, crude extract. The class given is biochemical. Conditions: read-out: percentage inhibition. The protocol:
(§1) A pET24 plasmid containing a DNA sequence encoding each identified variant mutant of AtPPO1 derived from Arabidopsis thaliana, codon-optimised for expression in E. coli, and under control of a T7 promoter, was synthesised by Twist Bioscience. This plasmid was expressed in E. coli BL21 (DE3) hemG with 50 μg/mL kanamycin and 25 μg/mL chloramphenicol selection. Overnight cultures grown at 37° C. were used to inoculate 150 ml AIM (AIM-Terrific Broth Base including Trace elements, Formedium) in 500 ml shake flasks at a ratio of 1:100. Cultures were grown at 37° C., 200 rpm for 3 hours and then overnight at 26° C. Cells were harvested by 4° C. centrifugation for 20 minutes at 600 rpm. Cells were stored at −80° C. until extraction. 0.5-1 g of cell pellet from was thawed and resuspended in ratio of 1:1 in lysis buffer (20 mM Tris pH8, 500 mM sodium chloride, 10% glycerol, 1× complete Protease EDTA-free Inhibitor Tablet (Roche)). The resuspension was sonicated at 50% using 10-20 cycles of 10 seconds, 20 seconds off. After sonication Triton X-100 was added to the lysates at a final concentration of 0.5%. The lysates were centrifuged at 13.00 rpm for 10 min at 4° C. The crude extracts (i.e, supernatants) were stored at −80° C. Protein concentration was measured and calculated using the absorbance at 280 nm. Extracts were diluted 1 in 4 and 10 uL was analysed by SDS PAGE.
(§2) Variant crude extracts were assayed in a fluorescent Protoporphyrinogen Oxidase assay in black 384 well plates with a clear bottom. The total volume of the reaction mixture was 100 ul and contained 100 mM K2HPO4 pH7.2, 1 mM Na2EDTA, 5 mM DTT, 20% glycerol (v/v), 0.025% Tween 20 (v/v). Reactions were started with addition of 1 uM protoporphyrinogen IX final assay concentration. Fluorescence was monitored over 30 min using a Tecan plate reader with an excitation wavelength of 405 nm, emission wavelength of 635 nm, gain of 90 and 15 flashes. 10 ul of 3-fold serial dilution of crude extract in 100 mM K2HPO4 pH7.2, 1 mM Na2EDTA, 5 mM DTT, 20% glycerol (v/v), 0.05% Tween 20 (v/v) was tested in the assay against 1% DMSO and 100 ppm herbicide B to determine the correct amount of crude extract to add to the assay to observe activity. 10 ul of the appropriate crude extract dilution was then tested in the fluorescent Protoporphyrinogen Oxidase assay against DMSO and 10-fold dose response of each compound (herbicides A to E) with a top rate of 100 ppm.
(§3) The percentage inhibition was calculated as the activity in the presence of one of four concentrations of each herbicide compound A to E (note that the compounds labelled as A to E are identified hereinabove in the relevant section of the description) as a percentage of the enzyme activity in DMSO (Table 5).

For assay [2], the target named is T2, AtPPO1 S305L Y361T V365L T431R L479M (SEQ ID NO.130) (Arabidopsis thaliana, UniProt P55826, L479M/S305L/T431R/V365L/Y361T).
T2 construct: made in house; host or cells: E. coli BL21 (DE3) hemG, crude extract
T2 sequence (P55826 35-537 S305L/Y361T/V365L/T431R/L479M): T1 sequence (P55826 35-537 Y426M/T461Q/L479M) with S271L, Y327T, V331L, M392Y, T397R, Q427T
The assay is described as above. The class given is biochemical. Conditions: read-out: percentage inhibition. As for the experimental part: as §1, §2, §3

One may read the inhibition as how much of the control response was suppressed. `CCOC(=O)COc1ncccc1Oc1cc(-n2c(=O)cc(C(F)(F)F)n(C)c2=O)c(F)cc1Cl` [Herbicide A, epyrifenacil]: in assay [1], the inhibition at 0.1 ppm turned out to be 10%, the inhibition at 1 ppm worked out at 51%, the inhibition at 10 ppm stood at 77% and the inhibition at 100 ppm came out at 100%. In addition, in assay [2], the inhibition at 0.1 ppm stood at 15%, the inhibition at 1 ppm was 69%, the inhibition at 10 ppm amounted to 99% and the inhibition at 100 ppm is 94%.
Consider `C#CCN1C(=O)C(F)(F)Oc2cc(F)c(-n3c(=O)n(C)c(=S)n(C)c3=O)cc21` [Herbicide B, trifludimoxazin], for which, in assay [1], the inhibition at 0.1 ppm was determined as 100%, the inhibition at 1 ppm was 100%, the inhibition at 10 ppm was found to be 100% and the inhibition at 100 ppm came out at 100%. In assay [2], the inhibition at 0.1 ppm was determined as 41%, the inhibition at 1 ppm came to 100%, the inhibition at 10 ppm came to 97% and the inhibition at 100 ppm is 98%.
As to `CCOC(=O)C1(C)CC(c2cc(-n3c(=O)cc(C(F)(F)F)n(C)c3=O)c(F)cc2Cl)=NO1` (stereo not drawn) [Herbicide C, 3-(2-chloro-4-fluoro-5-(3-methyl-2,6-dioxo-4-trifluoromethyl-3,6-dihydropyrimidin-1(2H)-yl)phenyl)-5-methyl-4,5-dihydroisoxazole-5-carboxylic acid ethyl ester], in assay [1], the inhibition at 0.1 ppm was 26%, the inhibition at 1 ppm was 54%, the inhibition at 10 ppm is 75% and the inhibition at 100 ppm turned out to be 100%. For the same compound, in assay [2], the inhibition at 1 ppm amounted to 78%, the inhibition at 10 ppm is 99% and the inhibition at 100 ppm came out at 97%.
With `CCOC(=O)[C@]1(C)CC(c2cc(-n3c(=O)n(C)c(=S)n(C)c3=O)c(F)cc2Cl)=NO1` [Herbicide D, ethyl (5S)-3-[2-chloro-5-(3,5-dimethyl-2,6-dioxo-4-thioxo-1,3,5-triazinan-1-yl)-4-fluoro-phenyl]-5-methyl-4H-isoxazole-5-carboxylate], in assay [1], the inhibition at 0.1 ppm is 58%, the inhibition at 1 ppm turned out to be 79%, the inhibition at 10 ppm is 95% and the inhibition at 100 ppm was determined as 100%. Also, in assay [2], the inhibition at 0.1 ppm was found to be 12%, the inhibition at 1 ppm was found to be 42%, the inhibition at 10 ppm is 89% and the inhibition at 100 ppm came out at 92%.
`CC(C)N(C)S(=O)(=O)NC(=O)c1cc(-n2c(=O)cc(C(F)(F)F)n(C)c2=O)c(F)cc1Cl` [Herbicide E, saflufenacil]: in assay [1], the inhibition at 0.1 ppm stood at 0%, the inhibition at 1 ppm was determined as 26%, the inhibition at 10 ppm was 70% and the inhibition at 100 ppm turned out to be 100%. Moreover, in assay [2], the inhibition at 0.1 ppm turned out to be 9%, the inhibition at 1 ppm came out at 45%, the inhibition at 10 ppm was 82% and the inhibition at 100 ppm came out at 91%.
